In patent US9067905B2, “Sulphone compounds and methods of making and using same” (Zafgen, Inc., priority 2009, dated 2015):
Where a name gives a salt, the structure may show the parent alone. Each block holds one compound with its values, some of them ahead of it.

Molecular target: T1, recombinant human MetAP2 (Homo sapiens, UniProt P50579)
T1 construct: Flag; made in house; host or cells: Sf9 insect cells
Assay: Inhibition of recombinant human MetAP2 activity (Amplex red fluorescence assay)
Assay type: biochemical
Conditions: manganese Flag-MetAP2, 0.75 mM Methionine-Alanine-Serine substrate, 30 minutes at 25° C., pH 7.5, 1% DMSO
Procedure: Compounds are tested for their capacity to inhibit recombinant human MetAP2 activity using the following assay.
Human recombinant Flag-MetAP2 expressed in Sf9 cells followed by affinity purification and EDTA treatment to remove endogenous active site cation is dialysed against MnCl2 to produce the manganese enzyme used in the assay. The assay is carried out for 30 minutes at 25° C. in 50 mM HEPES buffer containing 100 mM NaCl, pH 7.5 the presence of 0.75 mM Methionine-Alanine-Serine (MAS) substrate and 50 μg/ml amino acid oxidase using a dilution of purified MetAP2 giving approximately 50,000 RFU control activity. Cleavage of the substrate by MetAP2 and oxidation of free methionine by amino acid oxidase is detected and quantified using fluorescence generated by Amplex red (10-acetyl-3,7-dihydroxyphenoxazine) in combination with horseradish peroxidase which detects H2O2 released during the oxidation step. The fluorescent signal is detected using a multiwell fluorimeter. Compounds are diluted in DMSO prior to addition to assay buffer, the final DMSO concentration in the assay being 1%.
The IC50 is defined as the concentration at which a given compound achieves 50% inhibition of control. IC50 values are calculated using the XLfit software package (version 2.0.5).

T1 sequence (P50579 whole entry): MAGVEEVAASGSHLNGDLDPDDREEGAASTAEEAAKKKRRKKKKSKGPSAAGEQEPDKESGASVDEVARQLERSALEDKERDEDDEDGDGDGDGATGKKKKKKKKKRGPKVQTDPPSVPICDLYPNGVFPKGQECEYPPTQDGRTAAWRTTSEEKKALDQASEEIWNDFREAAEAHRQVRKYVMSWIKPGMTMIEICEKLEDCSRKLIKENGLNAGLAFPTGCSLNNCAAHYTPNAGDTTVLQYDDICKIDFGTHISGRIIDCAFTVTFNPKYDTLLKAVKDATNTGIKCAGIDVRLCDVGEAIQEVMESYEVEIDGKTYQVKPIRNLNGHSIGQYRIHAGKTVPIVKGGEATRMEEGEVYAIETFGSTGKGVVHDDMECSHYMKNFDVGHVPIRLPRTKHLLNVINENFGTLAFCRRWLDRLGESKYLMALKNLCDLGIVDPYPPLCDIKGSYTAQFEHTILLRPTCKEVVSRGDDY

Compound: COc1c(-c2ccccc2)ccc(CS(=O)(=O)c2ccccc2)c1C(=O)O [6-(Benzenesulphonylmethyl)-2-methoxy-3-phenylbenzoic acid]
- IC50: > 2000 nM

Compound: NCCCc1c(-c2ccoc2)ccc(CS(=O)(=O)c2ccccc2)c1C(=O)O [2-(3-Aminopropyl)-6-(benzenesulphonylmethyl)-3-(furan-3-yl)-benzoic acid hydrochloride]
- IC50: > 2000 nM

Compound: O=C(O)c1cc(-c2ccoc2)ccc1CS(=O)(=O)c1ccccc1 [2-(Benzenesulphonylmethyl)-5-(furan-3-yl)benzoic acid]
- IC50: 200 to 2000 nM

Compound: COc1c(-c2ccon2)ccc(CS(=O)(=O)c2ccccc2)c1C(=O)O [6-(Benzenesulphonylmethyl)-3-(isoxazol-3-yl)-2-methoxybenzoic acid]
- IC50: > 2000 nM

Compound: CCN(CC)C/C=C\c1cc(F)ccc1S(=O)(=O)Cc1ccc(-c2ccoc2)c(OCC#N)c1C(=O)O [(Z)-2-Cyanomethoxy-6-((2-(3-(Diethylamino)prop-1-enyl)-4-fluorobenzenesulfonyl)methyl)-3-(furan-3-yl)benzoic acid]
- IC50: < 200 nM

Compound: NCCOc1c(-c2ccoc2)ccc(CS(=O)(=O)c2ccc(F)cc2)c1C(=O)O [2-(2-Aminoethoxy)-6-(4-fluorobenzenesulphonylmethyl)-3-(furan-3-yl)benzoic acid hydrochloride]
- IC50: < 200 nM

Compound: CCc1ccc(CS(=O)(=O)c2ccc(F)cc2)c(C(=O)O)c1OC [3-Ethyl-6-(4-fluorobenzenesulphonylmethyl)-2-methoxybenzoic acid]
- IC50: 200 to 2000 nM

Compound: COc1c(-c2ccoc2)ccc(CS(=O)(=O)N2C3CCC2CC3)c1C(=O)O [6-(7-Azabicyclo[2.2.1]heptane-7-ylsulphonylmethyl)-3-(furan-3-yl)-2-methoxybenzoic acid]
- IC50: 200 to 2000 nM

Compound: CC#Cc1c(-c2ccoc2)ccc(CS(=O)(=O)c2ccccc2)c1C(=O)O [6-(Benzenesulphonylmethyl)-3-(furan-3-yl)-2-(prop-1-yn-1-yl)benzoic acid]
- IC50: > 2000 nM

Compound: COc1c(-c2ccns2)ccc(CS(=O)(=O)c2ccccc2)c1C(=O)O [6-(Benzenesulphonylmethyl-3-(isothiazol-5-yl)-2-methoxy-benzoic acid]
- IC50: < 200 nM

Compound: COc1c(-c2ccoc2)ccc(CS(=O)(=O)N2CCC(F)(F)CC2)c1C(=O)O [6-(4,4-Difluoropiperidine-1-ylsulphonylmethyl)-3-(furan-3-yl)-2-methoxybenzoic acid]
- IC50: < 200 nM

Compound: COc1cccc(CS(=O)(=O)c2ccccc2)c1C(=O)O [2-(Benzenesulphonylmethyl)-6-methoxybenzoic acid]
- IC50: > 2000 nM

Now from value to compound:

- IC50: > 2000 nM
Compound: COc1cccc2ccc(CS(=O)(=O)c3ccccc3)c(C(=O)O)c12 [2-(Benzenesulphonylmethyl)-8-methoxynaphthalene-1-carboxylic acid]

- IC50: < 200 nM
Compound: COc1c(-c2ccoc2)ccc(CS(=O)(=O)c2ccc(F)cc2)c1C(=O)O [6-(4-Fluorobenzenesulphonylmethyl)-3-(furan-3-yl)-2-methoxybenzoic acid]

- IC50: > 2000 nM
Compound: COc1c(C2CCOC2)ccc(CS(=O)(=O)C2CC3CCC2CC3)c1C(=O)O (stereo not shown) [6-(Bicyclo[2.2.2]octane-2-ylsulphonylmethyl)-2-methoxy-3-(tetrahydrofuran-3-yl)benzoic acid]

- IC50: > 2000 nM
Compound: COc1c(-c2nccs2)ccc(CS(=O)(=O)c2ccccc2)c1C(=O)O [6-(Benzenesulphonylmethyl)-2-methoxy-3-(thiazol-2-yl)benzoic acid]

- IC50: 200 to 2000 nM
Compound: COc1c(C2CC2)ccc(CS(=O)(=O)c2ccccc2)c1C(=O)O [6-(Benzenesulphonylmethyl)-3-cyclopropyl-2-methoxy-benzoic acid]

- IC50: 200 to 2000 nM
Compound: COc1c(-c2ccoc2)ccc(CS(=O)(=O)c2ccccc2F)c1C(=O)O [6-(2-Fluorobenzenesulphonylmethyl)-3-(furan-3-yl)-2-methoxybenzoic acid]

- IC50: < 200 nM
Compound: COc1c(-c2ccoc2)ccc(CS(=O)(=NC#N)c2ccccc2)c1C(=O)O (stereo not shown) [6-[(N-cyano-S-phenylsulphonimidoyl)methyl]-3-(furan-3-yl)-2-methoxybenzoic acid]
